In patent publication US20250101062A1, “ANTIMICROBIAL PEPTIDES” (Board of Regents of the University of Nebraska, priority 2023, published 2025):
Where two headings read alike, the source gives them in different places. Where a SMILES comes first, the peptide text is derived from it. Where no end group is shown, it is not given here.

What was measured:
S. aureus USA300 LAC = assay: microbe, parasite or virus in culture; format: cell-based, Staphylococcus aureus
Summary of the method: (§1)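 Broth microdilution with twofold peptide dilutions, using exponential-phase bacteria at about 10^5 CFU/mL in MHB, incubated overnight at 37 °C and read at OD600. MIC, reported as a range, is the peptide concentration with no growth. Some tests used diluted MHB/TSB/LB, adjusted pH, or added NaCl or human serum.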

E. coli E423-17 [1] = format: cell-based, Escherichia coli
E. coli E423-17 [2] = format: cell-based, Escherichia coli; settings: DMEM
S. epidermidis 1457 = assay: microbe, parasite or virus in culture; format: cell-based, Staphylococcus epidermidis; settings: read-out: Antimicrobial activity (MIC) S. epidermidis 1457
Summary of the method: (§2)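 Peptides twofold serially diluted against exponential-phase resistant clinical isolates at ~10^5 CFU/mL in MHB (also diluted MHB, TSB or LB in one protocol), CLSI-based broth microdilution. Incubated overnight at 37° C., OD 600 nm read; MIC taken as lowest concentration without growth, reported as ranges.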

K. pneumoniae E406-17 = format: cell-based, Klebsiella pneumoniae
Summary of the method: as §2

A. baumannii B28-16 = format: cell-based, Acinetobacter baumannii
Summary of the method: as §2

P. aeruginosa E411-17 [3] = assay: microbe, parasite or virus in culture; format: cell-based, Pseudomonas aeruginosa; settings: for MIC: read-out: Antimicrobial activity (MIC)
Summary of the method: as §1

P. aeruginosa E416-17 = format: cell-based, Pseudomonas aeruginosa
Method: Peptide activity against bacteria were tested using the CLSI standard procedure with minor modifications (Clinical and Laboratory Standards Institute (2018) Performance standards for antimicrobial susceptibility testing, 9th ed.; Mishra, et al. (2019) Proc. Natl. Acad. Sci., 116(27):13517-13522). In brief, a peptide concentration gradient with twofold dilution was made in the 96-well polystyrene microplate at 10 μL per well. Bacteria were grown to the exponential phase (i.e., optical density at 600 nm≈0.5), diluted to ˜10^5 CFU/mL in MHB, and partitioned into the 96-well microplate at 90 μL per well. The microplates were incubated at 37° C. overnight and read on a ChroMate® 4300 Microplate Reader at 600 nm (GMI, Ramsey, MN). The peptide concentration in the wells without bacterial growth is the minimal inhibitory concentration (MIC). As the convention, MIC values were represented as ranges.

human red blood cells = assay: Hemolytic assay; format: cell-based
Method: The hemolytic effects of peptides were evaluated using a method with minor modifications (Lakshmaiah Narayana, et al. (2021) ACS Infect. Dis., 7:1795-1808). Human red blood cells (hRBCs, UNMC Blood Bank) were washed (3×) with blood bank saline (isotonic solution 0.90% w/v, Fisher). Cells were diluted to 2% using the saline solution, and aliquots of 90 μL were added to a 96-well polystyrene microplate containing 10 μL of serially diluted peptide solutions. After incubation at 37° C. for 1 hour, plates were centrifuged at 500 g for 5 minutes. Aliquots of the supernatant were transferred to a 96-well microplate. The amount of hemoglobin released was measured at 545 nm by using a ChroMate™ microplate reader. […] HC50 is defined as the concentration of the peptide that caused 50% lysis.
The hemolytic effects of peptides were evaluated (Narayana, et al. (2020) Proc. Natl. Acad. Sci., 117(32):19446-9454). In brief, human red blood cells (UNMC Blood Bank) were washed (3×) and diluted to 2% using the saline solution. Aliquots of 90 μL were mixed with 10 μL of serially diluted peptide solutions. After incubation at 37° C. for 1 hour, plates were centrifuged at 500 g for 5 minutes and aliquots of the supernatant were transferred to a new 96-well microplate to measure the amount of hemoglobin released at 545 nm (relative to 1% Triton® X-100) using a ChroMate® Microplate Reader.

[4] = Cell viability assay (MTS); format: cell-based, human; settings: human; 24 h; read-out: 50% lethal concentration (LC50)
Method: Human keratinocyte HaCaT cells were grown in DMEM/high glucose (Hyclone, UT) containing 10% fetal bovine serum (Mediatech, Corning, Manassas, VA). […] The mixture was incubated at 37° C. in 5% CO2 for 24 hours.
(§3) HepG2 cells were cultured in ATCC-formulated Eagle's Minimum Essential Medium with 10% FBS. A549 cells were grown in ATCC-formulated F-12K Medium containing 10% FBS.

Cytotoxicity assay (MTS) = format: cell-based; settings: human, HepG2 cells, read-out: LC50
Method: as §3

P. aeruginosa E411-17 [5] = assay: Killing kinetics; format: cell-based, Pseudomonas aeruginosa; settings: 4×MIC
Method: For bacterial killing kinetics study, MRSA USA300 and P. aeruginosa E411-17 was grown to the exponential phase (OD600˜0.3) in MHB. The culture was diluted to OD600 0.001 (˜10^5 CFU/mL). One milliliter of bacterial suspension was then mixed with the peptide, colistin or daptomycin at 4×MIC and incubated at 37° C. After 15, 30, 60, 90, and 120 minutes incubation, 50 μL was taken and serially diluted with 1×PBS. Then, 50 μL of the diluted suspension was plated on Mannitol Salt Agar (MRSA USA300) or Cetrimide Agar (P. aeruginosa E411-17) plates (NEOGEN, MI). The plates were incubated overnight at 37° C. for bacterial CFU count the next day.

E. coli E423-17 [6] = assay: Membrane permeabilization (propidium iodide); format: cell-based, Escherichia coli; settings: Example 1, 1×MIC
trypsin = settings: peptide:protease 40:1, 37° C., 1 hour
Method: A solution of peptide/protease (40:1 molar ratio) was made in phosphate-buffered saline (PBS; pH 7.1, Gibco, NY) and incubated at 37° C. for 1 hour. As controls, peptides without proteases were also incubated in the same manner. Then, aliquots of 10 μL were transferred to a 96-well polystyrene microplate and mixed with the exponential-phase MRSA USA300 culture as performed in the antibacterial activity assays above.

chymotrypsin = molecular target: T1, chymotrypsin (Bos taurus, UniProt P00766); format: in vitro ADME, mammalian
T1 construct: purchased Thermo Fisher Scientific

pepsin = molecular target: T2, pepsin (Sus scrofa, UniProt P00791); format: in vitro ADME, mammalian
T2 construct: purchased Thermo Fisher Scientific
T2 sequence (P00791 60-385): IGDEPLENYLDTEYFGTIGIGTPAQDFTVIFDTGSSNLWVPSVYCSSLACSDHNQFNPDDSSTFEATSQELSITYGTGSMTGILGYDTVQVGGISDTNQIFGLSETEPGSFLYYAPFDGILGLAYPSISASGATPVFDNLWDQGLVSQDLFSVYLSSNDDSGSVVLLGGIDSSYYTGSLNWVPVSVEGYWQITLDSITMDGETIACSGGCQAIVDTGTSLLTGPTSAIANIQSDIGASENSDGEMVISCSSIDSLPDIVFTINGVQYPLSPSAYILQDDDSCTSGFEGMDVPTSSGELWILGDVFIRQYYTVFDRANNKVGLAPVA

RIKDFLRNLV-NH2 (C-terminus assumed) [RIK-10]
Antimicrobial activity (MIC) (S. aureus USA300 LAC; MHB 12.5%): active
Antimicrobial activity (MIC) (E. coli E423-17 [1]; E423-17): 32 to 64 µM
Antimicrobial activity (MIC) (E. coli E423-17 [1]; MHB 100%): 16 µM
Antimicrobial activity (MIC) (E. coli E423-17 [2]): 8 µM

RWKRFLRNWV-NH2 [RIK-10+]
MIC S. aureus USA300 (S. aureus USA300 LAC; USA300): 16 to 32 µM
MIC (S. aureus USA300 LAC; USA300, pH 6.21, read-out: Antimicrobial activity (MIC)): >32 µM
MIC (S. aureus USA300 LAC; USA300, pH 7.22, read-out: Antimicrobial activity (MIC)): 16 µM
MIC (S. aureus USA300 LAC; USA300, pH 8.13, read-out: Antimicrobial activity (MIC)): 8 µM
MIC (S. aureus USA300 LAC; USA300, read-out: Antimicrobial activity (MIC)): > 32 µM
MIC (S. aureus USA300 LAC; USA300, read-out: Antimicrobial activity (MIC) S. aureus USA300): 16 µM
Antimicrobial activity (MIC) E. coli E423-17 (E. coli E423-17 [1]; E423-17): 4 µM
MIC E. coli E423-17 (E. coli E423-17 [1]; E423-17): 4 to 8 µM
MIC (S. epidermidis 1457): >32 µM
MIC K. pneumoniae E406-17 (K. pneumoniae E406-17): 32 µM
Antimicrobial activity (MIC) A. baumannii B28-16 (A. baumannii B28-16; B28-16): 8 µM
Antimicrobial activity (MIC) P. aeruginosa E411-17 (P. aeruginosa E411-17 [3]; E411-17): 4 µM
MIC (P. aeruginosa E411-17 [3]; E411-17, pH 6.21): 8 µM
Antimicrobial activity (MIC) (P. aeruginosa E411-17 [3]; E411-17, pH 7.22): 4 to 8 µM
MIC (P. aeruginosa E411-17 [3]; E411-17, pH 8.13): 4 µM
MIC (P. aeruginosa E411-17 [3]; E411-17): >32 µM
MIC P. aeruginosa E416-17 (P. aeruginosa E416-17): 4 µM
Hemolysis (HC10), 10% hemolytic concentration (human red blood cells; red cells of human): 220 µM
CC50 at 24 h [4]: 100 µM
CC50 at 24 h (Cytotoxicity assay (MTS)): 100 µM

Colistin [reference compound]
MIC (S. aureus USA300 LAC; Human serum 5%, read-out: Antimicrobial activity (MIC)): >8 µM
MIC (S. aureus USA300 LAC; Human serum 10%, read-out: Antimicrobial activity (MIC)): >8 µM
MIC (S. aureus USA300 LAC; NaCl (150 mM), read-out: Antimicrobial activity (MIC)): >8 µM
MIC (S. aureus USA300 LAC; pH 6.21, read-out: Antimicrobial activity (MIC)): >8 µM
MIC (S. aureus USA300 LAC; pH 7.22, read-out: Antimicrobial activity (MIC)): >8 µM
MIC (S. aureus USA300 LAC; pH 8.13, read-out: Antimicrobial activity (MIC)): >8 µM
Antimicrobial activity (MIC) E. coli E423-17 (E. coli E423-17 [1]; MHB, Table 8): 1 to 2 µM
Antimicrobial activity (MIC) A. baumannii B28-16 (A. baumannii B28-16; MHB, Table 8): 2 µM
Antimicrobial activity (MIC) (P. aeruginosa E411-17 [3]; Human serum 5%): 1 to 2 µM
MIC (P. aeruginosa E411-17 [3]; Human serum 10%): 2 µM
Antimicrobial activity (MIC) P. aeruginosa E411-17 (P. aeruginosa E411-17 [3]; MHB, Table 8): 1 to 2 µM
MIC (P. aeruginosa E411-17 [3]; NaCl (150 mM)): 2 µM
MIC (P. aeruginosa E411-17 [3]; pH 6.21): 2 µM
Antimicrobial activity (MIC) (P. aeruginosa E411-17 [3]; pH 7.22): 1 to 2 µM
Antimicrobial activity (MIC) (P. aeruginosa E411-17 [3]; pH 8.13): 1 to 2 µM
hemolysis (human red blood cells; at 400 μM): did not lyse human red blood cells even at 400 μM
time to kill (P. aeruginosa E411-17 [5]): 30 min
membrane permeabilization (E. coli E423-17 [6]): powerful membrane permeator

N=C(N)NCCC[C@@H](N)C(=O)N[C@H](CCCNC(=N)N)C(=O)N[C@H](Cc1c[nH]c2ccccc12)C(=O)N[C@H](Cc1c[nH]c2ccccc12)C(=O)N[C@H](CCCNC(=N)N)C(=O)N[C@H](Cc1c[nH]c2ccccc12)C(=O)N[C@H](Cc1c[nH]c2ccccc12)C(=O)N[C@H](CCCNC(=N)N)C(N)=O [LL-37mini (D-form)] (HELM PEPTIDE1{[dR].[dR].[dW].[dW].[dR].[dW].[dW].[dR].[am]}$$$$V2.0)
activity after protease incubation (trypsin): remained active
activity after protease incubation (chymotrypsin): remained active
activity after protease incubation (pepsin): retained antibacterial activity
